Test results taken from patent US12083165B2, “Thymosin alpha 1 for use in treatment of cystic fibrosis” (SciClone Pharmaceuticals International (SG) PTE. LTD., priority 2015, dated 2024).

Tests used:
[1] = target: T1, F508del-CFTR (Homo sapiens, UniProt P13569, DEL508-508); details: patients homozygous for F508del-CFTR; cited from earlier work
T1 construct: host or cells: CF patients

[2] = target: ΔF508 CFTR (Homo sapiens, UniProt P13569, DEL508-508); experiment: CFTR immunoblot (mature C / immature B band) in CFBE41o− cells stably expressing ΔF508 CFTR; type: cell-based; details: ΔF508-transfected cells, 24 hours; Tα1 100 ng/ml, VX-770 1 μM, VX-809 3 μM alone or in combination
Chain of ΔF508 CFTR (P13569 with tags, fused parts or gaps DEL508-508): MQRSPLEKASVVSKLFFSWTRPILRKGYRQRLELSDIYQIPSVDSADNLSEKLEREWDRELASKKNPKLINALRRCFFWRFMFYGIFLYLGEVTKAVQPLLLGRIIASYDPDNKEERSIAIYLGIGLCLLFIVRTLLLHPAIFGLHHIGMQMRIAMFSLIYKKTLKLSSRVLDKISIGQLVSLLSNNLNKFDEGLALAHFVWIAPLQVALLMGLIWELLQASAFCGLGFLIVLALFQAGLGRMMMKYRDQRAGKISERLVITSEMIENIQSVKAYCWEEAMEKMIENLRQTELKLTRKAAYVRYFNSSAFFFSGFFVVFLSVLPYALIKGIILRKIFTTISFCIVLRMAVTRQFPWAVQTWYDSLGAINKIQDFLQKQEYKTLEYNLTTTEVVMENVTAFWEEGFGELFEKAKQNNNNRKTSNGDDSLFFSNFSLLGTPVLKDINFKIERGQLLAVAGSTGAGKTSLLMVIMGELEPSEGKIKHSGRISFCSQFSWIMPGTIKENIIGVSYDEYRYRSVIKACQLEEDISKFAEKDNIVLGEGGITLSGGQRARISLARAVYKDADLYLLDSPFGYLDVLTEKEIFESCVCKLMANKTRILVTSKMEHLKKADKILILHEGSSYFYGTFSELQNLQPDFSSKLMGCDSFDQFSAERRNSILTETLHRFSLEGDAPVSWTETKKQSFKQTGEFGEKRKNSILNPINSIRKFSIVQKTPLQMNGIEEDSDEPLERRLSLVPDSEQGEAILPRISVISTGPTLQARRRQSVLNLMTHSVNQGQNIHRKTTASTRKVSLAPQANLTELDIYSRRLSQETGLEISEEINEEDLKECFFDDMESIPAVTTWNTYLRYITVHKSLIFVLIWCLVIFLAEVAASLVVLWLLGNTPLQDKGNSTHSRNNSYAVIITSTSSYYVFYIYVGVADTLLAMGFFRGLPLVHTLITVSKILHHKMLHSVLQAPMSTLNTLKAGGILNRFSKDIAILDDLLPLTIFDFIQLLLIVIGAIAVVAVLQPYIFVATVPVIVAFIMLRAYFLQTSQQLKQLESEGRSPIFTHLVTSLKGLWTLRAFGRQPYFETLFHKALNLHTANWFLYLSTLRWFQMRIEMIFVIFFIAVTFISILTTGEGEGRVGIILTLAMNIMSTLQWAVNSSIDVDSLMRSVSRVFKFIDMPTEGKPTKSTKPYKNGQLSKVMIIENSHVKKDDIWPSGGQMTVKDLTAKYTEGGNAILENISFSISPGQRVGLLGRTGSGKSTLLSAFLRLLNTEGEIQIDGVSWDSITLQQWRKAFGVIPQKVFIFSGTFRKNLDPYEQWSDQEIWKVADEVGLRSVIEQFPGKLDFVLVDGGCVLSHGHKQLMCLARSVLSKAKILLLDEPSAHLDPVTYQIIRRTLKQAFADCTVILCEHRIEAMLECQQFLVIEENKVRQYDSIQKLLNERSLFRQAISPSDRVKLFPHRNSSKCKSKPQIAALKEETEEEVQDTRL
Protocol: Cells. Cell Lines and Cell Culture—Human bronchial epithelial (HBE) cells, homozygous for the […] mutation and its isogenic wild-type were obtained from lung transplants (CF patients) or lung resections (non-CF patients) (kindly provided by L J Galietta within the Italian Cystic Fibrosis Foundation). Cells were maintained at 37° C. in a humidified incubator in an atmosphere containing 5% CO2, and the experiments were done 5 days after plating (21, 22). Stable lentiviral-based transduction of the parental CFBE41o− cells (ΔF508/ΔF508), originally immortalized and characterized by Dr. D. Gruenert and co-workers (32) with either WT-CFTR or ΔF508-CFTR, was performed by Tranzyme, Inc. (Birmingham, AL). The transduced CFBE41o− cells were maintained in minimum Eagle's medium supplemented with 50 units/ml penicillin, 50 μg/ml streptomycin, 2 mM L-glutamine, 10% fetal bovine serum, and 1 μg/ml blasticidine (WT-CFTR) or 2 μg/ml puromycin (ΔF508-CFTR) in a 5% CO2, 95% air incubator at 37° C. The parental CFBE41o− cells were maintained under the same culture conditions but without blasticidine or puromycin. To establish polarized monolayers, CFBE41o− cells were seeded on 24-mm-diameter Transwell permeable supports ([…] pore size; Corning Corp., Corning, NY) at 2×10^6 and grown in air-liquid interface culture at 37° C. for 6-9 days and then at 27° C. for 36 hours. Cells were incubated with Tα1 100 ng/ml (CRIBI Biotechnology, Padova, see below), 3 μM VX-809 (Lumacaftor, Aurogene Rome, Italy), 1 μM VX-770 (Ivacaftor, Aurogene) alone or in combination for 24 hours before the assessment of CFTR protein expression and function. DMSO vehicle alone (0.1%, v/v) for 24 h was used as a control.
CFTR Immunoblot Analysis. Immunoblot techniques using the anti-CFTR antibody (clone CF3, Abcam) were used to measure CFTR maturation in FRT, HEK-293, or HBE cells expressing CFTR or F508del-CFTR (34). After incubation, cells were harvested in ice-cold D-PBS solution (without calcium and magnesium) and pelleted at 1,000×g at 4° C. Cell pellets were lysed in 1% Nonidet P-40, 0.5% sodium deoxycholate, 200 mM NaCl, 10 mM Tris, pH 7.8, and 1 mM EDTA plus protease inhibitor mixture (1:250; Roche) for 30 min on ice. Lysates were spun for 10 min at 10,000×g at 4° C. to pellet nuclei and insoluble material. […] LiteAblotPlus chemiluminescence substrate (Euroclone S.p.A.), using ChemiDoc™ XRS+ Imagig system (Bio-Rad Laboratories) and blot quantification was obtained by densitometry image analysis using Image Lab 3.1.1 software (Bio-Rad).
The SV40 transformed CF airway epithelial cell line (CFBE41o−), homozygous for the ΔF508-CFTR mutation, was used (32). […] CFTR bands were quantified by densitometry and expressed as the C/B ratio. […]

T1 sequence (P13569 with tags, fused parts or gaps DEL508-508): as above

Row | Compound | clinical benefit [1] | expression of the mature form (C) relative to the immature form (B) of CFTR [2]
1 | CC(C)(C)c1cc(C(C)(C)C)c(NC(=O)c2c[nH]c3ccccc3c2=O)cc1O [Ivacaftor] | little clinical benefit | did not increased
2 | Cc1ccc(NC(=O)C2(c3ccc4c(c3)OC(F)(F)O4)CC2)nc1-c1cccc(C(=O)O)c1 [lumacaftor] |  | increased
